Results as given in patent US9689042B2, “Use of glycolytic pathways for inhibiting or measuring oncogenic signaling” (The Regents of the University of California, priority 2012, dated 2017).
“Also recorded” adds a separate entry of the source.

Legend:
T4-2 cells [1] = assay: Mitochondrial activity (MitoTracker oxidation) assay in 3D lrECM; assay type: cell-based, human
Experimental: Cells suspended in 200 μl lrECM were seeded in 12 well glass-bottom plates (14 mm diameter; MatTek Corporation). Gels were overlaid with 500 μl H14 media and cultured for 10 days before each assay unless otherwise described.
For mitochondrial activity, we slightly modified the method described previously (Morici et al., 2007). Briefly, cells were incubated with 2 μM MitoTracker® Orange CM-H2 TMRos (Invitrogen) for 1 hour and fixed with PFA as above. Cells were counterstained with Hoechst 33342 (Invitrogen), which is known also to bind to DNA stoichiometrically, then MitoTracker and Hoechst staining were measured by taking z-section images from top to bottom of the gels using confocal microscopy.
In each assay, one well, containing only lrECM, was made for background measurements. Glucose uptake measured by 2DG uptake, lactate production and MitoTracker staining were normalized using total DNA levels, and presented relative to that of control (either S1 or non-treated T4-2 cells).

[2] = system: S1 cells infected with GLUT3-HA-encoding lentivirus; assay: 3D lrECM culture of S1 cells overexpressing GLUT3; assay type: cell-based, human; settings: S1 cells over-expressing GLUT3-HA, 2DG 4 mM
Source text: HIV 5′ LTR sequence in pTRIPZ vector (Open Biosystems) was removed by FspI-BbvCI digestion to replace with sequence containing chimeric CMV promoter-HIV 5′ LTR. CMV promoter was amplified by PCR from pcDNA3 (Invitrogen), fused to sequence containing partial HIV 5′ LTR sequence. The resulting intermediate vector, pTRIPZ-OY (optimal yield) was digested with BbvCI and NotI, to remove sequence containing TRE-minCMV promoter, turboRFP, UbqC promoter and rtTA3 (described in the manual provided by the manufacturer). The sequences containing EF1α/HTLV hybrid promoter and multiple cloning sites were removed from pCDH-EF1-MCS-T2A-Puro vector (System Bioscience) by digestion with the same restriction enzymes, and ligated into the digested pTRIPZ-OY vector, resulting in pLETIP vector. GLUT3 cDNA fused to C-terminal HA tag was amplified from total cDNA of T4-2 cells by PCR. The primers used were as follows: 5′-[…]-3′ (SEQ ID NO: 9) and 5′-[…] TTAGCA-3′ (SEQ ID NO: 10). The amplified cDNA was digested with BamHI and XmaI, and ligated into the same sites of pBluescriptII SK(−) vector for validating the sequence. GLUT3-HA cDNA was then digested with BamHI and SmaI, and ligated into pLETIP vector digested with NotI, blunted with T4 polymerase and further digested with BamHI, resulting in pLETIP GLUT3-HA vector. […]

[3] = system: EGFR, β1 integrin, Akt, MEK, GLUT3, glycolytic enzymes in T4-2 cells; assay: Western blots of signaling intermediates, GLUT3 and metabolic enzymes in 3D lrECM cultures of T4-2 cells; assay type: cell-based, human; settings: T4-2 cells
Experimental: Cell colonies were separated from lrECM gels by shaking in PBS containing 5 mM EDTA and the proteinase inhibitor cocktail set I (Calbiochem) on ice for 30 min. Cells were lysed in lysis buffer (1% NP-40, 1% deoxycholate, 2% SDS, 150 mM NaCl, 20 mM Tris-HCl [pH 7.4] plus 5 mM EDTA and protease inhibitor cocktail set I and phosphatase inhibitor cocktail set I [Calbiochem]) and sonicated three times for 30 sec each. Proteins were separated by SDS-PAGE, transferred to nitrocellulose membranes, and probed with antibodies against the following proteins: phosphorylated MEK, MEK, phosphorylated Akt, Akt, phosphorylated AMPK, AMPK, p70S6K, phosphorylated p70S6K, CHOP, EPAC1 (Cell Signaling), β1 integrin, EGFR, activated EGFR, HIF-1α, (Chemicon International), PFKP (Abgent), GAPDH, GLUT3 (GeneTex), LDHA, PDHE1α, DLAT, DLD, HIF-3α, Rap1, sAC, EPAC2, OGT, Lamin A/C (Santa Cruz Biotechnology), Aldolase (Polysciences), GFPT (ProteinTech Group), HIF-2α (Abcam), and HA-tag (Covance). After probing with HRP-conjugated secondary antibodies, blots were developed using SuperSignal West Femto chemiluminescence reagent (Pierce Biotechnology). Images were captured using Fluor Chem 8900 imager (Alpha Innotech).

EGFR, ITGB1, GLUT3 mRNA = assay: Quantitative PCR of EGFR, ITGB1 and GLUT3 mRNA in T4-2 cells; assay type: cell-based, human; settings: 3D lrECM, normalized to 18S ribosomal RNA
Experimental: First strand cDNA pools of S1, T4-2 and reverted T4-2 cells were obtained from total RNA of each sample by using SuperScript II (Invitrogen). For each sample, reverse transcription was carried out with random hexamer and with oligo dT primer following the manufacturer's instruction, and the two reactions were mixed in a ratio of 9:1. Expression levels of EGFR, ITGB1, GLUT3 and 18S ribosomal RNA (used as a control) were quantified in LightCycler system (Roche) using QuantiTect SYBR Green PCR Kits (QIAGEN) and the reverse transcription mixtures. Expression levels of EGFR, ITGB1, GLUT3 were normalized to that of 18S ribosomal RNA.

S1 cells = assay: 3D lrECM culture of non-malignant S1 cells: acinar morphology and growth; assay type: cell-based, human; settings: 2DG 4 mM, OGM 4 ng/ml
Experimental: (§1) HMT-3522 cells were cultured on tissue culture plastic (2D) and in 3D lrECM gels with H14 medium, a 1:1 mix of DMEM/F12 (UCSF Cell Culture Facility) supplemented with 250 ng/ml insulin, 10 μg/ml transferrin, 2.6 ng/ml sodium selenite, 0.1 nM β-estradiol, 1.4 μM hydrocortisone and 5 μg/ml prolactin but no serum. S1 cells were additionally supplemented with 10 ng/ml EGF. MDA-MB-231 and HCC70 cells were cultured in DMEM and RPMI1640, respectively, and were supplemented with 10% fetal bovine serum (FBS).
(§2) For 3D lrECM cultures, S1 and T4-2 cells were seeded at 840,000 and 600,000 cells per cm3 respectively in lrECM gel (Cultrex), overlaid with H14 medium. MDA-MB-231 and HCC70 cells were seeded at 625,000 cell per cm3 and overlaid with H14 medium supplemented with 1% FBS. Cells were used for each assay after 10 days, unless otherwise indicated.
Pieces of lrECM gel containing cell colonies were suspended in approximately the same volume of phosphate buffered saline (PBS) and directly spread on glass slides. After brief air-drying, colonies were fixed with 3.7% paraformaldehyde (PFA) in PBS at room temperature (RT) for 10 min, washed with PBS containing 0.1 mM glycine, and permeabilized with 1:1 methanol/acetone at −20° C. for 10 min. […]

T4-2 cells [4] = settings: T4-2 cells, 3D lrECM
Experimental: as §1, §2
Pieces of lrECM gel containing cell colonies were suspended in approximately the same volume of phosphate buffered saline (PBS) and directly spread on glass slides. After brief air-drying, colonies were fixed with 3.7% paraformaldehyde (PFA) in PBS at room temperature (RT) for 10 min, washed with PBS containing 0.1 mM glycine, and permeabilized with 1:1 methanol/acetone at −20° C. for 10 min. After blocking with IF buffer (0.2% Triton X-100, 0.1% BSA [radioimmunoassay grade], 0.05% Tween 20, 7.7 mM NaN3 in PBS) containing 10% goat serum and 1% goat F(ab′)2 anti-mouse immunoglobulin G (IgG; Caltag) at RT for 30 min, colonies were stained with anti-α6 integrin antibody (Chemicon International) at 4° C. overnight. Colonies were washed extensively with IF buffer, and stained with Alexa 568-labeled anti-rat IgG antibody at RT for 2 hr. Colonies were washed with IF buffer again, and nuclei were stained with DAPI at RT for 10 min. Slides were briefly washed with PBS and mounted with 50% glycerol in PBS.
To test whether increased glucose metabolism itself is required for oncogenic signaling events, we utilized 3D lrECM cultures of HMT-3522, a breast cancer progression series which includes non-malignant (S1) and malignant (T4-2) human breast epithelial cells from the same individual (Briand et al., 1987; Petersen et al., 1992; Rizki et al., 2008). Using these cells, we have described the involvement and reciprocity of multiple signaling pathways including EGFR, β1 integrin, PI3K-Akt and MEK-ERK in oncogenic events (Beliveau et al., 2010; Bissell et al., 2005). […] We thus used this “phenotypic reversion” of the cancer cells as an assay to examine how the signaling integration plan of the breast acini could involve glucose metabolism.

[5] = same inhibitor concentrations as E1

For `O=CC[C@@H](O)[C@H](O)[C@H](O)CO` [2DG, 2-deoxy-D-glucose], the “mitochondrial activity (oxidation)” value (T4-2 cells [1]) was “essentially unaffected”, the “reversal of the disorganized phenotype caused by GLUT3 over-expression” value [2] was “could be reversed” and the “expression of ER stress marker CHOP” value ([3]; 3D cultures, 2DG 4 mM) was “unchanged”. The “phosphorylation of AMPK or S6K” value ([3]; 3D cultures, 2DG 4 mM) was “did not affect”, the “expression of GLUT3 and the glycolytic enzymes” value ([3]; 3D lrECM, Western blot) was “dramatic down-regulation” and the “expression of PDC components” value ([3]; 3D lrECM, Western blot) was “elevated”. The “levels and/or activities of EGFR, β1 integrin, Akt and MEK (oncogenic signaling)” value ([3]; 3D lrECM, Western blot) was “decrease”, the “mRNA expression of EGFR, β1 integrin and GLUT3” value (EGFR, ITGB1, GLUT3 mRNA) was “effectively suppressed” and the “acinar morphology, basal polarity and growth rate of non-malignant cells” value (S1 cells) was “altered neither the acinar morphology nor the growth rate”. For the same compound, the “phenotypic reversion of the malignant phenotype” value (T4-2 cells [4]; 2DG 4 mM, IA 20 μM, OX 50 mM, Azs 20 μM, DON 20 μM, BADGP 5 mM, TM 10 ng/ml, OGM 4 ng/ml, Rapa 0.01-1.0 μM) was “induced phenotypic reversion; also recorded: do induce phenotypic reversion”, the “basal polarity / organized acinar structures” value (T4-2 cells [4]; [5]) was “re-establishment of basally polarized acini” and the “growth / proliferation (cell numbers at the colony mid-section, EdU incorporation)” value (T4-2 cells [4]; [5]) was “growth arrest”.
